Patent US9625458B2, “Biosensor” (priority 2002, dated 2017)

Test: Fluorescence emission spectra without and with saturating ligand (wavelength shift, ΔIstd, ΔRmax)
Parameters: key to ΔIstd: intensity change at λstd normalized to average intensity; key to ΔRmax: ratio change of two emission band areas, unbound vs saturated
Conditions: unbound vs ligand-saturated; for ΔIstd: standard intensity change; for ΔRmax: standard ratiometric change
Experimental: Fluorimetry. All measurements were conducted with an SLM Aminco-Bowman series 2 fluorimeter, with sample stirring at 25° C. Fluorescence emission spectra were acquired with excitation and emission slit widths of 4 and 8 nm, respectively. Photomultiplier tube potential was maintained between 400 and 800 volts. Protein concentrations were in the range of 50 to 1000 nM. Fluorophore-specific excitation was at the following approximate wavelengths: tryptophan, 290 nm; acrylodan, 390 nm; fluorescein, 485 nm; pyrene, 340 nm; NBD and NBDE, 490 nm; JPW4039, 485 nm; JPW4042, 470 nm; JPW4045, 470 nm.
Assessment of fluorescent biosensor function. Fluorescence emission spectra of bPBP-fluorophore conjugates were recorded in the absence and presence of saturating ligand concentrations. Spectral changes were characterized by four parameters: wavelength shift (the difference between the wavelengths of emission maximum in the unbound and ligand-saturated states), direction of intensity change (increase or decrease in intensity at the wavelengths of maximum emission in the two states), standard intensity change (ΔIstd), and standard ratiometric change (ΔR). ΔIstd is defined as the normalized intensity change relative to the average intensity, determined at the wavelength mid-point between the two emission maxima:
[formula] where λstd=(λmax, unbound+λmax, saturated)/2 and I1, I2 are the fluorescence intensities at λstd of each spectrum respectively (FIG. 4A). ΔR is defined in terms of two emission bands, A1 ([λ1, λ2]) and A2 ([λ3, λ4]) (FIG. 4B):
[formula] where ^∘A1, […] the areas in the absence of ligand, and ^∞A1, ^∞A2 the areas in the presence of saturating ligand. A computer program was used to enumerate ΔR for all possible pairs of wavelength bands in the two spectra, to identify the optimal sensing condition, defined as the maximum value of ΔR. Adjustable parameters of the algorithm, and their values used for ΔRmax quantities reported here, are: step size (2 nm), step width (10 nm), minimum integration area limit (fraction of total: 0.1), and maximum integration area limit (fraction of total: 1).

Row | Substance | ΔIstd | ΔRmax
1 | sulfate BP L65C Acrylodan | 0.39 | 2.95
2 | sulfate BP L65C Fluorescein | 0.39 | 1.31
3 | sulfate BP L65C JPW4042 | 0.40 | 1.82
4 | sulfate BP L65C NBD | 0.02 | 0.61
5 | sulfate BP L65C Pyrene | 0.13 | 1.20
6 | sulfate BP Q294C Acrylodan | 0.04 | 0.13
7 | sulfate BP Q294C Fluorescein | 0.00 | 0.11
8 | sulfate BP Q294C JPW4042 | 0.27 | 1.17
9 | sulfate BP Q294C NBD | 0.00 | 0.02
10 | sulfate BP Q294C Pyrene | 0.01 | 0.08
11 | sulfate BP R134C Acrylodan | 0.18 | 2.26
12 | sulfate BP R134C Fluorescein | 0.01 | 0.02
13 | sulfate BP R134C JPW4039 | 0.08 | 2.02
14 | sulfate BP R134C JPW4042 | 0.52 | 0.96
15 | sulfate BP R134C NBD | 0.58 | 0.37
16 | sulfate BP R134C Pyrene | 0.15 | 1.30
17 | sulfate BP W290C Acrylodan | 0.04 | 0.03
18 | sulfate BP W290C Fluorescein | 0.04 | 0.09
19 | sulfate BP W290C JPW4042 | 0.43 | 0.89
20 | sulfate BP W290C NBD | 0.06 | 0.11
21 | sulfate BP W290C Pyrene | 0.16 | 0.37
22 | sulfate BP Y67C Acrylodan | 0.00 | 0.12
23 | sulfate BP Y67C Fluorescein | 0.01 | 0.04
24 | sulfate BP Y67C NBD | 0.13 | 0.20
25 | sulfate BP Y67C Pyrene | 0.02 | 0.48
